Activity calls are given as the source filed them. No rule for the calls is given here.
Assay: Quorum luxo inducers, light production, v cholerae bh1651 luxod47e, confirmatory dose response (AID 624254)
Settings: V. cholerae BH1651 luxOD47E, luciferase light induction, 6 h; at 50 µM (top of the series)

| SMILES | activation (light increase) |
| --- | --- |
| CC(C)CNC(=O)c1c2c(nc3ccccc13)-c1ccccc1CC2 | inactive |
| CC(=O)Nc1ccc(Nc2nc(C)nc3c2oc2ccccc23)cc1 | inactive |
| C[C@H]1CN([C@@H](C)CO)C(=O)c2cccc(NC(=O)C3CC3)c2O[C@@H]1CN(C)S(=O)(=O)c1cccs1 | inactive |
| O=S(=O)(Nc1cccnc1)c1ccc(Oc2ccccc2)cc1 | inactive |
| Cc1ccccc1C(=O)Nc1ccc(-c2nc3ccc(C(=O)c4ccccc4)cc3[nH]2)cc1 | inactive |
| C=Cn1c(C(=O)O)ccc1-c1ccc(CC)cc1 | inactive |
| O=C(CN1C(=O)CSC1=O)NC1CCCCC1 | inactive |
| CC(C)OC(=O)CSc1nnc(SCc2cccc3ccccc23)s1 | inactive |
| CCOC(=O)C1CCCN(C(=O)c2cc3c(OC)c(OC)c(OC)cc3[nH]2)C1 (configuration not stated) | inactive |
| CCc1cc(C(=O)N2CCN(C(=O)c3ccccc3)CC2)sc1C | inactive |
| O=C(CNc1cc(S(=O)(=O)N2CCOCC2)ccc1N1CCCC1)Nc1ccc(Cl)cc1 | inactive |
| Cc1ccc(OCCC(=O)OCC(=O)Nc2ccc3c(c2)OCO3)cc1 | inactive |
| CC(=O)Nc1ccc(NS(=O)(=O)c2cn(C)cn2)cc1 | inactive |
| O=C(COC(=O)[C@H](Cc1c[nH]c2ccccc12)NC(=O)c1ccc(Cl)cc1)Nc1ccc2c(c1)OCO2 | inactive |
| C=Cn1c(C(=O)O)ccc1-c1ccccc1 | inactive |
| Cn1cnc(S(=O)(=O)Nc2ccccc2Cl)c1 | inactive |
| COc1cc(NC(=O)Cc2cccs2)ccc1-n1cnnn1 | inactive |
| COC(=O)c1ccc(C2C(C(C)=O)=C(O)C(=O)N2CCO)cc1 (configuration not stated) | inactive |
| Cc1ccc(OCCCC(=O)N(C)CC(=O)Nc2ccccc2Cl)cc1 | inactive |
| CC1CCCN(C(=O)Cn2c(-c3nonc3N)nc3ccccc32)C1 (configuration not stated) | inactive |
| COc1ccc2c(c1)CCC(C)N2S(=O)(=O)c1ccc(C2CNC(=O)C2)cc1 (configuration not stated) | inactive |
| Cn1cnc(S(=O)(=O)Nc2ccc(C(F)(F)F)cc2)c1 | inactive |

| SMILES | activation (light increase) |
| --- | --- |
| CCC1(CC)NC(=O)N(CC(=O)OCC(=O)NC(=O)c2ccccc2OC)C1=O | inactive |
| CC(=O)N1CCC(=O)N(C(C)C)c2ccccc21 | inactive |
| O=c1c2ccccc2nnn1CSc1nnc2ccccn12 | inactive |
| COc1ccc(N(CC(=O)NC2CCCCC2)C(=O)CNC(=O)c2ccco2)c(OC)c1 | inactive |
| CCCNC(=O)COC(=O)/C=C/c1ccc(C)o1 | inactive |
| COc1ccc(S(=O)(=O)N2CCCCC2)cc1NC(=O)c1ccc(OC)c(OC)c1 | inactive |
| COc1ccc(CCNC(=O)c2nnn(-c3ccc4c(c3)OCCO4)c2N)cc1OC | inactive |
| O=C(OCc1cc(=O)n2ccsc2n1)c1ccc(OC(F)F)cc1 | inactive |
| COc1ccc(CC(=O)N2CCC(Nc3nc4ccccc4n3Cc3ccc(F)cc3)CC2)cc1 | inactive |
| CCCc1cc(=O)[nH]c(Nc2ccc(N3CCCCC3)cc2)n1 | inactive |
| Cc1ccccc1NS(=O)(=O)c1cn(C)cn1 | inactive |
| O=C(Oc1ccc2ccc(OC(=O)N3CCOCC3)cc2c1)N1CCOCC1 | inactive |
| Cc1nnc(NC(=O)c2cccc(S(=O)(=O)N3CCc4ccccc43)c2)s1 | inactive |
| CCOC(=O)c1ccccc1NC(=O)COC(=O)C1=COCCO1 | inactive |
| COCCNc1nc2c(c(=O)n(Cc3ccc(OC)cc3)c(=O)n2C)n1C | inactive |
| CC(C)NC(=O)c1cnc(Sc2ncc(C(F)(F)F)cc2Cl)n1C | inactive |
| COc1ccc(CCN(C)C(=O)c2cc(S(=O)(=O)N3CCCCCC3)ccc2OC)cc1OC | inactive |
| CCOC(=O)CC1C(=O)NCCN1C(=O)c1cccc(C(F)(F)F)c1 (configuration not stated) | inactive |
| CC(=O)c1ccc(Oc2cc(C)nc(NCc3ccccc3)n2)cc1 | inactive |
| CCc1ccc2c(c1)c1nnc(NN)nc1n2CC | inactive |
| COc1ccc(CNC(=O)CSc2nc3c(oc4ccccc43)c(=O)n2CC2CCCO2)cc1 (configuration not stated) | inactive |
| CCCn1nnnc1NCc1ccc(C(C)C)cc1 | inactive |

| SMILES | activation (light increase) |
| --- | --- |
| COCCCNC(=O)c1ccc2c(=O)n(C3CCCC3)c(=S)[nH]c2c1 | inactive |
| COc1cc(C(N)=O)cc(Br)c1OC | inactive |
| O=C(Oc1nsnc1N1CCCCC1)N1CCOCC1 | inactive |
| Cn1c(CNc2cccc(Cl)c2)nnc1SCC(=O)OC1CCCCC1 | inactive |
| CCCOC(=O)c1ccc(NC(=O)C2CCCO2)cc1 (configuration not stated) | inactive |
| CC(C)Oc1ccc(C(=O)Nc2cc(S(=O)(=O)N3CCOCC3)ccc2N2CCOCC2)cc1 | inactive |
| CCc1ccc(OCCNC(=O)c2cccs2)cc1 | inactive |
| CCN(C(=O)COc1ncnc2ccc(Br)cc12)C1CCS(=O)(=O)C1 (configuration not stated) | inactive |
| COc1ccccc1NC(=O)COC(=O)c1oc2ccccc2c1C | inactive |
| Cc1c(C(=O)c2ccc(F)cc2F)c2ccccn2c1CCc1ccccn1 | inactive |
| COc1ccc(Cl)cc1NC(=O)COC(=O)c1ccc(C)o1 | inactive |
| CCn1nnnc1SCC(=O)c1ccc2c(c1)OCCO2 | inactive |
| N#Cc1nc(-c2ccc(OCc3ccc(Cl)cc3)cc2)oc1NCc1cccnc1 | inactive |
| CCC(C)(C)n1nnnc1CN1CCN(c2nc3ccc(C)cc3cc2C#N)CC1 | inactive |
| CCOc1ccc(Nc2nc3c(c(=O)[nH]2)CCCC3)cc1 | inactive |
| COc1cccc(NC(=O)C2CC(=O)OC23CCOC(C)(C)C3)c1 (configuration not stated) | inactive |
| CC(=O)c1ccc(S(=O)(=O)Nc2cccc(-c3ccc4nncn4n3)c2)cc1 | inactive |
| CN(C)c1nc(N)ncc1-c1ccc(Oc2ccccc2)cc1 | inactive |
| CCOC(=O)Cc1c(C)[nH]c(=S)[nH]c1=O | inactive |
| Cn1c(CCNC(=O)c2ccco2)nc2cc(NC(=O)NC3CCCCC3)ccc21 | inactive |
| O=C(O)C1C2CCC(C2)C1C(=O)Nc1cc(F)ccc1F (configuration not stated) | inactive |
| COc1ccc2nc(SC(C)C(=O)NCC(=O)Nc3ccc(F)c(F)c3F)[nH]c2c1 (configuration not stated) | inactive |

| SMILES | activation (light increase) |
| --- | --- |
| CN(Cc1nc2ccccc2n1C)C(=O)c1ccco1 | inactive |
| CC(=O)c1c(N2CCC(C(N)=O)CC2)nc(=S)n(-c2ccccc2)c1C | inactive |
| Cc1ccc(OCC(=O)NC2CCS(=O)(=O)C2)c([N+](=O)[O-])n1 (configuration not stated) | inactive |
| CCc1ccc(-c2ccc(C(=O)O)n2C)cc1 | inactive |
| COC(=O)Cc1c(C)c2ccc(OC(=O)c3ccccc3)cc2oc1=O | inactive |
| CC(=O)Nc1ccc(NC(=O)c2ccccc2C)cc1 | inactive |
| O=c1c2ccccc2nnn1CSc1nnc(-c2cccnc2)n1-c1ccccc1F | inactive |
| O=S(=O)(Nc1ccc(-c2ccc3nncn3n2)cc1)c1ccc(Cl)s1 | inactive |
| Cc1cc2oc(=O)cc(CN3CCC(C)CC3)c2cc1Cl | inactive |
| Cc1onc(-c2ccccc2)c1C(=O)N1CCOCC1 | inactive |
| O=C(Nc1ccc(S(=O)(=O)Nc2ncccn2)cc1)C1CC(=O)N(c2ccccc2)C1 (configuration not stated) | inactive |
| Cn1c(=O)oc2cc(S(=O)(=O)N3CCN(c4ccc(F)cc4)CC3)ccc21 | inactive |
| COc1ccccc1CCN1CCCC(CN(C)C(=O)c2ccco2)C1 (configuration not stated) | inactive |
| COCCn1nnnc1CN1CCC(NC(=O)Nc2cccc(OC)c2)CC1 | inactive |
| COc1ccc(-c2nnc3c4ccccc4c(C)nn23)cc1 | inactive |
| C[C@H](CO)N1C[C@H](C)[C@H](CN(C)S(=O)(=O)c2ccccc2)Oc2c(NC(=O)Nc3ccc4c(c3)OCO4)cccc2C1=O | inactive |
| CCc1ccc(-c2ccc(C(=O)O)n2CC)cc1 | inactive |
| CCOC(=O)Nc1ccc(S(=O)(=O)Nc2cc(C)nc(C)n2)cc1 | inactive |
| C[C@@H]1CN([C@H](C)CO)C(=O)c2cccc(NC(=O)Nc3ccc4c(c3)OCO4)c2O[C@@H]1CN(C)S(=O)(=O)c1ccccc1 | inactive |
| COc1ccc(/C(N)=N/OC(=O)Cc2ccccc2OC)cc1 | inactive |
| CC(C)CC(=O)N1CCN(Cc2ccccc2Br)CC1 | inactive |

Source: PubChem BioAssay AID624254 (Broad Institute, 2012)
